O=P(O)(O)c1ccccc1-c1ccccc1O
Settings | solubility (mole fraction)
in chlorobenzene, 300.97 K | 0.013
in chlorobenzene, 304.47 K | 0.0149
in chlorobenzene, 308.86 K | 0.0156
in chlorobenzene, 313.71 K | 0.0195
in chlorobenzene, 319.15 K | 0.0274
in chlorobenzene, 325.56 K | 0.036
in chlorobenzene, 332.4 K | 0.047
in chlorobenzene, 338.93 K | 0.0597
in chlorobenzene, 342.74 K | 0.07
in chlorobenzene, 346.96 K | 0.0853
in chlorobenzene, 349.4 K | 0.0974
in chlorobenzene, 352.87 K | 0.116
in chlorobenzene, 355.3 K | 0.131
in water, 308.6 K | 0.000258
in water, 314.7 K | 0.000336
in water, 320.97 K | 0.000396
in water, 332.2 K | 0.000496
in water, 337.7 K | 0.000579
in water, 342.4 K | 0.000688
in water, 347.77 K | 0.000763
in water, 352.6 K | 0.000859
in water, 358.3 K | 0.000984
in water, 362.37 K | 0.00115

Reference: BigSolDB 2.1
